≈ marks a conversion by molar mass, not a printed value. One block for each compound: values may come before it.
Tests used:
[1] = Bulk and tapped density of powder; format: physicochemical; details: for Bulk density (ρ0): about 500 mg in 5-mL measuring cylinder; for Tapped density (ρf): tapped 1250 times
Method: The density of powder is mainly referred to the bulk density and tapped density. The bulk density refers to the density obtained by dividing the mass of the powder by the volume of the powder in the container. The tapped density is obtained by dividing the mass of the powder by the volume of the powder which is tapped to the tightest state.
About 500 mg of Form G and the crystalline form of the prior art are added into a 5-mL measuring cylinder to measure the bulk volumes. The bulk density was calculated according to the equation: bulk density ρ0=powder mass/bulk volume. The samples were tapped 1250 times to make them in the tightest state and the tapped volumes were recorded. The tapped density was calculated according to tapped density ρf=powder mass/tapped volume.

[2] = Kinetic solubility in biorelevant media and water (HPLC); details: thermodynamic from solid
Method: (§1) Simulated gastrointestinal fluids such as SGF (Simulated gastric fluids), FaSSIF (Fasted state simulated intestinal fluids) and FeSSIF (Fed state simulated intestinal fluids) are biorelevant media. […] 20 mg of Form G and 20 mg of crystalline form of the prior art were suspended into 1.5 mL of SGF, 1.5 mL of FaSSIF, 1.5 mL of FaSSIF and 1.5 mL of water to get saturated solutions. After equilibrated for 1 h, 4 h and 24 h, concentrations of the saturated solutions were measured by HPLC (mg/mL).

[3] = Flowability by compressibility index (Carr index); format: physicochemical; details: graded from compressibility index
Method: Compressibility is usually used to evaluate the flowability of powder and granular intermediates during the formulation process, and is known as compressibility index (c). Compressibility index test method is as follows: a certain amount of powder was added into a measuring cylinder and bulk volume was recorded. Then the powder was tapped to make it in the tightest state, and the tapped volume was recorded. The bulk density (ρ0), tapped density (ρf) were calculated, and compressibility index was calculated according to c=(ρf−ρ0)/pf. Compressibility index, also known as Carr index, is an important index for evaluating flowability.
The test method of Compressibility index is as follows: Compressibility index was calculated according to bulk density ρ0 and tapped density ρf of Form G and the crystalline form of the prior art with c=(ρf−ρ0)/ρf*100%.

[4] = Adhesiveness: material sticking to the punch on tableting; format: physicochemical; details: 30 mg, φ8 mm round tooling, 10 KN, 30 s
Method: 30 mg of Form G and the crystalline form of the prior art were weighed and added into the dies of φ8 mm round tooling, tableted at 10 KN and held for 30 s. The amount of material sticking to the punch was weighed. The compression was repeated twice and the cumulative amount, maximum amount and average amount of material sticking to the punch during the compression process were recorded.

[5] = Hygroscopicity by dynamic vapor sorption (DVS); format: physicochemical
Method: Dynamic vapor sorption (DVS) was applied to test hygroscopicity of Form G and the crystalline form of the prior art with about 10 mg of samples. The weight gains at each relative humidity were recorded in a cycle of 0-95%-0 RH.

[6] = Stability of Form G on storage, crystalline form checked by XRPD; format: physicochemical; details: for Crystalline form after storage: XRPD
Text: Crystalline forms were checked by XRPD.

[7] = physchem; details: thermodynamic from solid
Method: as §1

[8] = FaSSIF (fasted state simulated intestinal fluid), fassif
[9] = FeSSIF (fed state simulated intestinal fluid), fessif
[10] = SGF (simulated gastric fluid), simulated gastric fluid

Bulk density (ρ0) [1]: 0.133 g/mL | Tapped density (ρf) [1]: 0.204 g/mL | solubility kinetic at 1 h [2, 8]: 16 µg/mL (≈ 43.1 µM) | solubility kinetic at 4 h [2, 8]: 18 µg/mL (≈ 48.5 µM) | solubility kinetic at 24 h [2, 8]: 18 µg/mL (≈ 48.5 µM) | solubility kinetic at 1 h [2, 9]: 35 µg/mL (≈ 94.2 µM) | solubility kinetic at 4 h [2, 9]: 31 µg/mL (≈ 83.5 µM) | solubility kinetic at 24 h [2, 9]: 33 µg/mL (≈ 88.8 µM) | solubility kinetic at 1 h [2, 10]: 1900 µg/mL (≈ 5120 µM) | solubility kinetic at 4 h [2, 10]: 1900 µg/mL (≈ 5120 µM) | solubility kinetic at 24 h [2, 10]: 1900 µg/mL (≈ 5120 µM) | solubility kinetic at 1 h ([2]; water): 8.9 µg/mL (≈ 24 µM) | solubility kinetic at 4 h ([2]; water): 12 µg/mL (≈ 32.3 µM) | solubility kinetic at 24 h ([2]; water): 13 µg/mL (≈ 35 µM) | Flowability [3]: Very poor (32-37) | Flowability ([3]; listed as the prior art form): very poor | Average amount of material sticking to the punch [4]: 0.21 mg | Cumulative amount of material sticking to the punch [4]: 0.41 mg | Maximum amount of material sticking to the punch [4]: 0.43 mg | Weight gain % ([5]; Relative humidity 0): 0% | Weight gain % ([5]; Relative humidity 10%): 0.07% | Weight gain % ([5]; Relative humidity 20%): 0.11% | Weight gain % ([5]; Relative humidity 30%): 0.15% | Weight gain % ([5]; Relative humidity 40%): 0.19% | Weight gain % ([5]; Relative humidity 50%): 0.24% | Weight gain % ([5]; Relative humidity 60%): 0.30% | Weight gain % ([5]; Relative humidity 70%): 0.36% | Weight gain % ([5]; Relative humidity 80%): 0.44% | Weight gain % ([5]; Relative humidity 90%): 0.59% | Weight gain % ([5]; Relative humidity 95%): 0.78%
SMILES: CCS(=O)(=O)N1CC(CC#N)(n2cc(-c3ncnc4[nH]ccc34)cn2)C1 [Crystalline form of the prior art, Baricitinib, reference compound]

Bulk density (ρ0) [1]: 0.538 g/mL | Tapped density (ρf) [1]: 0.614 g/mL | Time for which the form is stable ([6]; 25° C./60% RH (long term)): at least 6 months | Crystalline form after storage ([6]; 25° C./60% RH, 6 months): Form G | Time for which the form is stable ([6]; 40° C./75% RH (accelerated)): at least 6 months | Crystalline form after storage ([6]; 40° C./75% RH, 6 months): Form G | Time for which the form is stable ([6]; 60° C./75% RH): at least 1 week | Crystalline form after storage ([6]; 60° C./75% RH, 1 week): Form G | Time for which the form is stable ([6]; 80° C.): at least 1 week | Crystalline form after storage ([6]; 80° C., 1 week): Form G | Average amount of material sticking to the punch [4]: 0.06 mg | Cumulative amount of material sticking to the punch [4]: 0.12 mg | Maximum amount of material sticking to the punch [4]: 0.12 mg | solubility kinetic at 1 h ([7]; fassif): 81 µg/mL (≈ 218 µM) | solubility kinetic at 4 h ([7]; fassif): 100 µg/mL (≈ 269 µM) | solubility kinetic at 24 h ([7]; fassif): 140 µg/mL (≈ 377 µM) | solubility kinetic at 1 h ([7]; fessif): 130 µg/mL (≈ 350 µM) | solubility kinetic at 4 h ([7]; fessif): 170 µg/mL (≈ 458 µM) | solubility kinetic at 24 h ([7]; fessif): 220 µg/mL (≈ 592 µM) | solubility kinetic at 1 h ([7]; simulated gastric fluid): 2600 µg/mL (≈ 7000 µM) | solubility kinetic at 4 h ([7]; simulated gastric fluid): 2700 µg/mL (≈ 7270 µM) | solubility kinetic at 24 h ([7]; simulated gastric fluid): 2800 µg/mL (≈ 7540 µM) | solubility kinetic at 1 h ([7]; water): 52 µg/mL (≈ 140 µM) | solubility kinetic at 4 h ([7]; water): 66 µg/mL (≈ 178 µM) | solubility kinetic at 24 h ([7]; water): 96 µg/mL (≈ 258 µM) | Weight gain % ([5]; Relative humidity 0): 0% | Weight gain % ([5]; Relative humidity 10%): 0.01% | Weight gain % ([5]; Relative humidity 20%): 0.03% | Weight gain % ([5]; Relative humidity 30%): 0.04% | Weight gain % ([5]; Relative humidity 40%): 0.06% | Weight gain % ([5]; Relative humidity 50%): 0.07% | Weight gain % ([5]; Relative humidity 60%): 0.10% | Weight gain % ([5]; Relative humidity 70%): 0.15% | Weight gain % ([5]; Relative humidity 80%): 0.21% | Weight gain % ([5]; Relative humidity 90%): 0.27% | Weight gain % ([5]; Relative humidity 95%): 0.34% | Crystalline form change before and after DVS ([5]; XRPD overlay, cycle 0-95%-0 RH): no crystalline form change
SMILES: CCS(=O)(=O)N1CC(CC#N)(n2cc(-c3ncnc4[nH]ccc34)cn2)C1 [Form G, Baricitinib]

Source: patent US11124517B2 (CRYSTAL PHARMACEUTICAL (SUZHOU) CO., LTD., priority 2017, dated 2021)
